Experimental data reported in BindingDB's records for doi:10.1016/j.bioorg.2015.10.005 (Hazara University, 2015).

Target: Urease subunit alpha (Sporosarcina pasteurii, UniProt P41020)
Assay: Urease Inhibition Assay
Settings: pH 7
Description: This assay was modified from Berthelot assay and was employed for the determination of urease activity. The assay is based on the hydrolysis of urea into ammonia which reacts with phenol-hypochlorite to form light blue colored complex measured at 625 nm. A total volume of 85 µl assay mixture contained 10 µl of 50 mM phosphate buffer, pH 7.0, 10 µl of sample solution and 25 µl of Bacillus pasteurii urease (Sigma) solution (0.015 units). The contents were pre-incubated at 37 °C for 10 min. Then, 40 µl of urea stock solution (20 mM) was added to each well and incubation continued at 37 °C for further 10 min and preread at 625 nm using the 96-well plate reader Synergy HT (Biotek Inc.). Phenol hypochlorite (115 µl) reagent was added in each well (freshly prepared by mixing 45 µl phenol reagent with 70 µl of alkali reagent). For color development, incubation was done at 37 °C for another 10 min. Absorbance was again measured at 625 nm.

Chain of Urease subunit alpha (P41020 as listed by the source): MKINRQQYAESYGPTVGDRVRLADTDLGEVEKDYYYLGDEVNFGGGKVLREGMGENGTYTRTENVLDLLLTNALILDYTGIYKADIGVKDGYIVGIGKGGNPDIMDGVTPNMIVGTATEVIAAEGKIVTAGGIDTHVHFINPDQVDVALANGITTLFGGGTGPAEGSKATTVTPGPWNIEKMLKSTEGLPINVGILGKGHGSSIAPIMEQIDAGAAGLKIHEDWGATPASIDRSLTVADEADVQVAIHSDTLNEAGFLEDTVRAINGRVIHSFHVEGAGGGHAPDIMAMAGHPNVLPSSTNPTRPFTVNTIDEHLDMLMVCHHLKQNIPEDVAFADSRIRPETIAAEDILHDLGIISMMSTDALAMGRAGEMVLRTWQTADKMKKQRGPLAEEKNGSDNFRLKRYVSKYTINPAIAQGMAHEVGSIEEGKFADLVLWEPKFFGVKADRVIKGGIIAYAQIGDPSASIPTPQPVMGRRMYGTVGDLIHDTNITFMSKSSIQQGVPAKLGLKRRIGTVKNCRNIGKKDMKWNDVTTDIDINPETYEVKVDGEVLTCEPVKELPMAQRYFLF

IC50 | SMILES
36.6 µM | COc1cc(/C=N/N=C2\NC(=O)CS2)cc(Br)c1OC [(E)-2((E)-(3-Bromo-4,5-dimethoxybenzylidene)hydrazono) thiazolidine-4-one (7)]
8.43 µM | O=C1CS/C(=N/N=C/c2cccc([N+](=O)[O-])c2)N1 [(E)-2((E)-(3-nitrobenzylidene)hydrazono)thiazolidin-4-one (8)]
14.6 µM | O=C1CS/C(=N/N=C\c2ccc(O)cc2)N1 [(E)-2((E)-(4-Hydroxybenzylidin)hydrazono)thiazolidine-4-one (6)]
26.9 µM | O=C1CSC(N/N=C/c2ccc([N+](=O)[O-])cc2)=N1 [(E)-2((E)-(4-Nitrobenzylidene)hydrazono)thiazolidine-4-one (2)]
52.5 µM | COc1cccc(/C=N/N=C2\NC(=O)CS2)c1OC [(E)-2-((E)-(2,3-Dimethoxybenzylidene)hydrazono)thiazolidin-4-one (4)]
47.5 µM | O=C1CS/C(=N/N=C/c2ccccc2[N+](=O)[O-])N1 [(E)-2-((E)-(2-Nitrobenzylidene)hydrazono)thiazolidin-4-one (1)]
26.7 µM | O=C1CS/C(=N/N=C/c2cc(Cl)cc(Cl)c2O)N1 [(E)-2-((E)-(3,5-Dichloro-2-hydroxybenzylidene)hydrazono)thiazolidin-4-one (5)]
9.34 µM | O=C1CS/C(=N/N=C\c2ccc(O)c(Cl)c2)N1 [(E)-2-((E)-(3-Chloro-4-hydroxybenzylideno)thiazolidin-4-one (3)]
37.9 µM | COc1cc(/C=N/N=C2\NC(=O)CS2)cc(OC)c1O [(E)-2-((E)-(4-Hyrazoxy-3,5-dimethoxybenzylidene)hydrazono)thiazolidin-4-one (9)]
51.4 µM | O=C1CS/C(=N/N=C\C2C=Nc3ccccc32)N1 (centres undefined) [(E)-2-(E)-((1H-Indole-3-yl)methylene)hydrazono)thiazolidine-4-one (16)]
2.31 µM | C/C(=N/N=C1\NC(=O)CS1)c1ccc([N+](=O)[O-])cc1Br [(Z)-2-((Z)-(1-(2-Bromo-4-nitrophenyl)ethylidene)hydrazono)thiazolidine-4-one (15)]
69.6 µM | COc1ccc(/C=N\N=C2/NC(=O)CS2)c(OC)c1 [(Z)-2-((Z)-(2,4-Dimethoxybenzoylidine)hydrazono)thiazolidine-4-one (18)]
5.75 µM | CCOc1ccc(/C=N\N=C2/NC(=O)CS2)cc1OC [(Z)-2-((Z)-(4-Ethoxy-3-methoxybenzoylidine)hydrazono)thiazolidine-4-one (17)]

SMILES | IC50
NC(N)=S [thiocarbamide] | 21.2 µM
